Results on four molecules are retold here after patent US5352667A, “Non-peptidic surrogates of the Arg-Gly-Asp sequence and pharmaceutical compositions comprising them” (priority 1991, dated 1994).

Data set [1] concerns trypsin. The data set can be described thus: Treatment with trypsin (HPLC monitoring of hydrolysis). It is filed as in vitro ADME. Conditions: 0.25% trypsin, 37° C., HPLC at 220 nm, aliquots 5, 30, 60 min. How it is done:
Compound SF-6,5 and the GRGDS peptide (50 μg in 100 μl PBS) were incubated at 37° C. and exposed to 0.25% trypsin (Gibco; 50μl in modified Puck's buffer). Aliquots were taken after 5, 30 and 60 min and monitored by HPLC at 220 nm.

The subject of data set [2] is BHK cells and chick embryo fibroblasts. Conditions: Yamada and Kennedy, 1987; cited from earlier work.
In data set [3] the target is T1, platelet GPIIb-IIIa receptor (Homo sapiens, UniProt P05106+P08514).
T1 construct: Platelet concentrates were prepared from human whole blood; endogenous in cells; host or cells: human platelets in platelet rich plasma
The data set can be described thus: Inhibition of ADP-induced platelet aggregation (platelet rich plasma). It is filed as cell-based. How it is done:
To investigate the inhibitory role of the RGD analogues on adhesion, the platelet GPIIb-IIIa receptor which mediates platelet aggregation upon activation was used as a model.
Platelet concentrates were prepared from human whole blood in 10% adenine-citrate-dextrose in Fenwall bags (Baxter Travenol, Israel) followed by standard AABB protocol. Platelet rich plasma was prepared by centrifugation (2500 rpm for 5 min). Samples of platelets were counted in a Minos AST Cell Counter (Levoiselle, France). Cell aggregation was induced by […] and monitored at […] in a 4-channel Aggregometer (Bio-Data, Hatboro, Pa.). To evaluate the effect of the various RGD peptides and the peptide analogues, the platelet rich plasma was pre-incubated with the various inhibitors for 10 min at 37° C. with 10μsolutions followed by the induction of aggregation.
To examine the specificity of the inhibitory effect of the RGD-analogues on platelet aggregation, the cells were treated with various peptidic (RGD and GRGDSP) and non-peptidic (SF-6,6, SF-6,5 and AC-15) RGD analogues used at a fixed sub-saturating concentration of 0.5 mM.
An in vitro assay as described in Example 17 was carried out with the compound NS-11 to examine its ability to interfere with platelet aggregation, and compared it to the SF-6,5 surrogate.
Platelet rich plasma (PRP) was prepared from acid/citrate/dextrose anti-coagulated fresh human blood by differential centrifugation. Platelet aggregation was induced by […] and monitored at 695 nm by a 4-channel Aggregometer (Bio-Data, PA). To evaluate the effect of the RGDS peptide and the NS-8, NS-11 and NS-15 analogs, the PRP was preincubated with the inhibitors for 10 minutes at 37° C., prior to the induction of aggregation. […] In fact, 50% inhibition of platelet aggregation was achieved using a 30-fold lower concentration of NS-11 than that of RGDS.

Data set [4] has as its system CD4^+ T cell adhesion to FN. Description: Inhibition of activated CD4+ T cell adhesion to FN. It is filed as cell-based, human. How it is done: To examine the adhesive properties of the T cells, 1 μg/50 μl/well of either fibronectin (FN) (Sigma), the 120 kD cell attachment fragment of FN (Telios Pharm. Inc. San Diego, CA), or laminin (LN) (Sigma), were added to 96-flat bottom microtiter-wells for 12 h. Unbound proteins were then washed away and remaining binding sites were blocked with 0.1% bovine serum albumin (BSA) added to the wells for 2 h and washed. CD4+T cells were purified from peripheral blood mononuclear leukocytes obtained from healthy human donors. The mononuclear cells were isolated using a Ficoll gradient, washed and incubated in RPMI supplemented with 10% fetal calf serum (FCS) and antibiotics in petri dishes at 37° C. humidified CO2 incubator. After 2 h, the non-adherent cells were isolated and applied on nylon-wool columns (1.5 h). CD4^+ T cells were then negatively selected by exposure of the cells to a cocktail of anti-CD8, CD19, and CD14 monoclonal antibodies (mAb) conjugated to magnetic-beads (Advanced Magnetics, MA). Unbound cells were recovered and their phenotype was examined. Purity of the CD4^+ T cells was always greater than 92% as determined by FACScan.
The purified CD4^+ T cells were radioactively labeled with ^51 [Cr](New England Nuclear) in RPMI +20% FCS for 2 h and washed. The cells were counted and seeded (0.2×10^5 cells) on the precoated microtiter wells in the presence or the absence of the various inhibitors. Coating was made either with FN, the 120 kD cell-attachment fragment of FN or with control adhesive protein laminin (LN). The inhibitors were various surrogates according to the invention, other test molecules or mAb. After 30 min incubation (in […] CO2 -- humidified incubator) the T cells were activated by 10 ng/ml phorbol myristate acetate (PMA) and the percent of T cells attached to the protein substrates was measured. Unbound cells were washed away after 20-30 min, the bound cells were lysed and their radioactivity was measured using radioactive counter. The amount of the radioactivity of the cell lysates represent the matrix-adherent cells and percent binding was calculated in comparison to the total radioactivity added to the wells. Activated T cell adhesion to control wells or to wells coated with BSA was always 2-5%; the level of adhesion of the non-activated T cells was always below 5%. Where indicated, 1/200 diluted mAb anti-CD29 (anti-β1 mAb Serotec, GB), or 1/400 diluted anti-VLA5 (the β1α5 FN-integrin receptor) mAb (Telios Pharm. Inc. San Diego), or 0.2 mM of RGD, GRGDSPK or GRGESP peptides (Sigma) were used. […] The results shown in Tables 1A, 1B and 1C represent data obtained from several experiments that produced essentially similar results.
In a second series of experiments, FN was used in the adhesion assay carried out with the RGD surrogates NS-8, NS-11 and NS-15 in comparison to RGDS peptide.
In a third series of experiments, FN was used in the adhesion assay with the surrogates SF-6,5 and NS-11 and compared to the peptide GRGDSP.

The subject of data set [5] is tumor cell-induced metastases. Description: Inhibition of tumor cell-induced metastases in C57BL/6 mice. Conditions: i.v. daily, 25μg of SF-6,5 per mouse, after induction of metastasis. It is filed as in vivo.
The test system of data set [6] is B16-melanoma cells adhesion to FN. Description: Inhibition of B16-melanoma cell adhesion to FN. The data set is classed as cell-based, murine.

“Also recorded” adds a separate entry of the source.

T1 sequence (P08514 32-887 limits assumed): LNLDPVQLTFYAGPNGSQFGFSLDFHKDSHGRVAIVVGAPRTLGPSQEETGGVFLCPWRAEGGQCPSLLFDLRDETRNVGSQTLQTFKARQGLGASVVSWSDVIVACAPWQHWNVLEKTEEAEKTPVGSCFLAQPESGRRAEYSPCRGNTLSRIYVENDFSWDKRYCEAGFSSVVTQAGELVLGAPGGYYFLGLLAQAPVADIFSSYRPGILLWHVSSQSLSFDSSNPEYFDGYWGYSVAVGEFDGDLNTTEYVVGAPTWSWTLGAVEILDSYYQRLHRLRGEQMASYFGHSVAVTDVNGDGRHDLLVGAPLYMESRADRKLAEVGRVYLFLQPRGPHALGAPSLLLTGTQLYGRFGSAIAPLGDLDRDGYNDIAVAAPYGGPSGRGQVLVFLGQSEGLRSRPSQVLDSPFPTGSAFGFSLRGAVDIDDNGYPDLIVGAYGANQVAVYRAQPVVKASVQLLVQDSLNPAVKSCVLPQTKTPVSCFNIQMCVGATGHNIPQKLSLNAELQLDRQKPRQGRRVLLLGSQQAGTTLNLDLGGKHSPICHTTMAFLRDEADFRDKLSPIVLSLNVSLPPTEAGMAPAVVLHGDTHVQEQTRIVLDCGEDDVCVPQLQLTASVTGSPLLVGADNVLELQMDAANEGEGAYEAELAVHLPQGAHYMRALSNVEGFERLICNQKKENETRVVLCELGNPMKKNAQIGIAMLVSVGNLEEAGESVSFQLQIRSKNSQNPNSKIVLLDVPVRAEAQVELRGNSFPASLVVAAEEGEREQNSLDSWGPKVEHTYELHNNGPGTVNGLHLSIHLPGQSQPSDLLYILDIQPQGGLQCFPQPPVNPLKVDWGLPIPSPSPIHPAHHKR
T1 sequence (P08514 891-1039 limits assumed): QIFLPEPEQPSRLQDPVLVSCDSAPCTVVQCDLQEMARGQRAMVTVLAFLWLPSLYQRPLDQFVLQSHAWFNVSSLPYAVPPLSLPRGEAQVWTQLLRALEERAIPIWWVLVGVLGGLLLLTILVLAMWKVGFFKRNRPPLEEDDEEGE
T1 sequence (P05106 27-788): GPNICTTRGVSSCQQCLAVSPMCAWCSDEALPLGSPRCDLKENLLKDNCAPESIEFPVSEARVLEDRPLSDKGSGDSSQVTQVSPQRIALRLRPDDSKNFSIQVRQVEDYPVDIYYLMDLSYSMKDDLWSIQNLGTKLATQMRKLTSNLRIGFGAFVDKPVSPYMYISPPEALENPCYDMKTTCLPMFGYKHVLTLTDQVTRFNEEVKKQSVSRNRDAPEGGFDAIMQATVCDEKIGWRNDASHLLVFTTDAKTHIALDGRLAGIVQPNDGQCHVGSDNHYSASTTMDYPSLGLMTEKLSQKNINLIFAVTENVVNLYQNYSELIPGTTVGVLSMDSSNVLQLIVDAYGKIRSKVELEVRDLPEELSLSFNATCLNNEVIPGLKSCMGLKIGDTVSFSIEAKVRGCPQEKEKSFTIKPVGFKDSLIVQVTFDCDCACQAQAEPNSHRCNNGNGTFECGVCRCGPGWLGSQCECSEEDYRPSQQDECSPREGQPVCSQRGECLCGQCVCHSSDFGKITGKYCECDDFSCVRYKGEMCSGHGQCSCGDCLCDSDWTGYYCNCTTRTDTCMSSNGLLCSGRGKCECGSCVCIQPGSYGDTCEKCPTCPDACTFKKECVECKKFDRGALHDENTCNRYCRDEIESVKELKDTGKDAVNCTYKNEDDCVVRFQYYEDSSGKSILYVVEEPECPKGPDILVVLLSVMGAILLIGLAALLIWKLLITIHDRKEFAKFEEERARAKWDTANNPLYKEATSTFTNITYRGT

For GRGDS [reference compound], in data set [1], the Stability to trypsin result is listed as “completely hydrolized after 5 min”.
Consider “Ser-Asp-Gly-Arg (SDGR; printed: Ser-Asp-Gly-Arg)”, for which the “Inhibition of cell spreading, in words” value in data set [2] is “inhibit spreading of BHK cells and chick embryo fibroblasts on vitronectin-coated substrates and on fibronectin-coated substrates”.
On to GRGDSP [reference compound], for which the “Percent inhibition of aggregation” value in data set [3] (0.1 mM, ADP-induced) is listed as 75%. The “% Adhesion of activated CD4^+ T cell to FN: (% inhibition)” value in data set [4] (Conc. 25 μg. ml) is reported as 40%; in data set [4] (Conc. 50 μg. ml) it was 50%; in data set [4] (Conc. 100 μg. ml), 75%. The “Inhibition of tumor cell-induced metastases” value in data set [5] is “failed to inhibit metastases”. Also, the entries for the “% Adhesion of activated tumor cells to FN: (% inhibition)” value in data set [6] (Conc. 25 μg. ml), in data set [6] (Conc. 50 μg. ml) and in data set [6] (Conc. 100 μg. ml) were 30%, 40% and 65%, respectively.
What is called inhibition is the drop in the measured response relative to a control, in per cent. Consider `N=C(N)NCCCC(=O)N1CCCC(C(=O)NCCC(=O)O)C1` (stereo not shown) [NS-11], for which the inhibition at 100 µM in data set [3] (0.1 mM, ADP-induced, read-out: Percent inhibition of aggregation) worked out at 90%. For the same molecule, the “Effect on platelet aggregation better than that of the RGD-peptide by” value in data set [3] (0.1 mM, same concentration) is on record as about 20%. Besides, the inhibition at 300 µM in data set [3] (0.3 mM, ADP-induced, read-out: Percent inhibition of aggregation) is 100%. Moreover, the “Inhibition of platelet aggregation, comparison in words” value in data set [3] (FIG. 5, Example 19) is “better inhibitor of platelet aggregation than either NS-8 and NS-15; also recorded: found to inhibit platelet aggregation better than the RGD-containing peptide (RGDS)”. Moreover, the “50% inhibition of platelet aggregation: lower concentration than that of RGDS” value in data set [3] (FIG. 5, vs RGDS) turned out to be 30 fold. For the same molecule, in data set [3] (Table 3), the “Inhibition of platelet aggregation, in words” value is given as “better inhibitor of platelet aggregation than SF-6,5; also recorded: significantly better inhibitor than the RGD-containing peptide”. Further, the “% Adhesion of activated CD4^+ T cell to FN: (% inhibition)” value was determined as 30% in data set [4] (Conc. 25 μg. ml), 50% in data set [4] (Conc. 50 μg. ml) and 85% in data set [4] (Conc. 100 μg. ml). The “Inhibition of cell adhesion relative to RGDS, in words” value in data set [4] (Table 1B) was “better inhibitor of cell adhesion than the RGDS peptide”. In data set [4] (Table 1B, surrogates 0.2 mM, CD4^+ T cell to FN), the “% Inhibition of adhesion” value came out at 71%. In addition, the “% Adhesion of activated CD4^+ to FN” value in data set [4] (Table 1B, surrogates 0.2 mM, none 65) is reported as 19%. The “% Adhesion of activated tumor cells to FN: (% inhibition)” value in data set [6] (Conc. 25 μg. ml) turned out to be 35%; in data set [6] (Conc. 50 μg. ml), 45%; in data set [6] (Conc. 100 μg. ml) it was 70%.
